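Five compound concentrations were applied to cells in 96-well plates for 48 hours; endpoints were derived by simple linear interpolation of the resulting dose-response curve. At the GI50, growth is halved.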 Calls of active or inactive are those of the source. No stated cut-off is given here; in the data, active = GI50 up to about 1.1 µM and inactive = higher.
Columns and labels:
Assay in all cases: inhibition of tumour cell growth, NCI panel, 48 h
HOP-18 = system: HOP-18
SNB-78 = system: SNB-78
XF498 = system: XF498
M19-MEL = system: M19-MEL
LXFL 529 = system: LXFL 529
DLD-1 = system: DLD-1
DMS-273 = system: DMS-273
DMS-114 = system: DMS-114
RXF 631 = system: RXF 631

| Structure (SMILES) | GI50 (HOP-18) | GI50 (SNB-78) | GI50 (XF498) | GI50 (M19-MEL) | GI50 (LXFL 529) | GI50 (DLD-1) | GI50 (DMS-273) | GI50 (DMS-114) | GI50 (RXF 631) |
| --- | --- | --- | --- | --- | --- | --- | --- | --- | --- |
| COc1cc2c(c(OC)c1OC)-c1ccc(SC)c(=O)cc1C(CC(=O)Oc1cccc(C#N)c1)C2 (centres undefined) | > 100 µM (inactive) | 0.57 µM (active) | 0.316 µM (active) | 0.303 µM (active) | 0.516 µM (active) | 0.388 µM (active) | 0.2 µM (active) | 0.251 µM (active) | – |
| Cc1c(/C=N/NC(=O)c2ccccc2)c(=O)n(-c2ccccc2)n1C | > 100 µM (inactive) | > 100 µM (inactive) | > 100 µM (inactive) | > 100 µM (inactive) | > 100 µM (inactive) | > 100 µM (inactive) | > 100 µM (inactive) | > 100 µM (inactive) | – |
| CCc1cc(Cc2ccc(C)c(NC(=O)C(=O)C3C(=O)NC(=O)NC3=O)c2CC)cc(C)c1NC(=O)C(=O)C1C(=O)NC(=O)NC1=O | – | > 100 µM (inactive) | – | > 100 µM (inactive) | > 100 µM (inactive) | > 100 µM (inactive) | > 100 µM (inactive) | > 100 µM (inactive) | > 100 µM (inactive) |
| O=C1OC(O)C(Oc2c(Cl)cccc2Cl)=C1Cl (centres undefined) | 19.1 µM (inactive) | 36.1 µM (inactive) | – | – | 16.6 µM (inactive) | 15.7 µM (inactive) | 15.8 µM (inactive) | – | – |
| CCOC(=O)CNC1C(NC(C)=O)C(OC)OC2COC(c3ccccc3)OC21 (centres undefined) | > 100 µM (inactive) | > 100 µM (inactive) | – | > 100 µM (inactive) | > 100 µM (inactive) | – | > 100 µM (inactive) | > 100 µM (inactive) | > 100 µM (inactive) |
| Cc1ccc(C(=O)NCc2ccccc2)cc1/N=N/N(C)C | – | > 100 µM (inactive) | – | > 100 µM (inactive) | 47.5 µM (inactive) | > 100 µM (inactive) | > 100 µM (inactive) | – | – |
| CC1=CC(=O)NP(=O)(C23CC4CC(CC(C4)C2)C3)N1 (centres undefined) | > 100 µM (inactive) | > 100 µM (inactive) | > 100 µM (inactive) | > 100 µM (inactive) | > 100 µM (inactive) | > 100 µM (inactive) | > 100 µM (inactive) | – | > 100 µM (inactive) |
| COc1cc(Br)c(CC2(C#N)c3ccccc3C3C(N2C(=O)c2ccccc2)C3(Cl)Cl)cc1OC (centres undefined) | > 65.5 µM (inactive) | > 65.5 µM (inactive) | > 65.5 µM (inactive) | – | 4.01 µM (inactive) | 19.3 µM (inactive) | 2.69 µM (inactive) | 16.3 µM (inactive) | – |
| CCOC(=O)/C(C#N)=C/c1[nH]c(C(=O)OCc2ccccc2)c(C)c1C | > 100 µM (inactive) | – | – | > 100 µM (inactive) | > 100 µM (inactive) | > 100 µM (inactive) | > 100 µM (inactive) | > 100 µM (inactive) | > 100 µM (inactive) |
| C=C1C(=O)OC2/C=C(\CO)C3OC3C3OC3(C)CC(OC(=O)/C(=C/C)COC(C)=O)C12 (centres undefined) | 9.79 µM (inactive) | 1.73 µM (inactive) | 1.8 µM (inactive) | 1.88 µM (inactive) | 0.805 µM (active) | 1.11 µM (active) | 3.12 µM (inactive) | 5.87 µM (inactive) | – |
| OCCCCOC(c1ccccc1)(c1ccccc1)c1ccccc1 | – | > 100 µM (inactive) | > 100 µM (inactive) | – | > 100 µM (inactive) | > 100 µM (inactive) | > 100 µM (inactive) | > 100 µM (inactive) | – |
| C=CCNC1=C(C(=O)OCC)C(=O)CO1 | – | > 100 µM (inactive) | > 100 µM (inactive) | > 100 µM (inactive) | > 100 µM (inactive) | > 100 µM (inactive) | > 100 µM (inactive) | > 100 µM (inactive) | > 100 µM (inactive) |
| c1ccc2[nH]c(-c3nc4ccccc4o3)nc2c1 | – | > 100 µM (inactive) | > 100 µM (inactive) | > 100 µM (inactive) | > 100 µM (inactive) | > 100 µM (inactive) | > 100 µM (inactive) | > 100 µM (inactive) | – |
| CC(C(=O)c1ccccc1)C1(O)C(=O)Nc2ccccc21 (centres undefined) | > 100 µM (inactive) | > 100 µM (inactive) | – | > 100 µM (inactive) | – | > 100 µM (inactive) | > 100 µM (inactive) | > 100 µM (inactive) | > 100 µM (inactive) |
| COC(=O)[C@H](CC(C)C)NC(=O)[C@H](Cc1ccccc1)N1CC2C=CC1C2 (some centres undefined) | > 100 µM (inactive) | – | > 100 µM (inactive) | > 100 µM (inactive) | > 100 µM (inactive) | – | > 100 µM (inactive) | > 100 µM (inactive) | – |
| CC1(C)CC(=O)C(CC2C(=O)c3ccccc3C2=O)C(=O)C1 | > 100 µM (inactive) | > 100 µM (inactive) | – | > 100 µM (inactive) | > 100 µM (inactive) | > 100 µM (inactive) | > 100 µM (inactive) | > 100 µM (inactive) | – |
| COc1ccc2nc(NC(=O)C(=O)C(C(=O)c3ccccc3-c3ccccc3)C3OC(=O)c4ccccc43)sc2c1 (centres undefined) | – | 35 µM (inactive) | 21.5 µM (inactive) | 15.1 µM (inactive) | 13.5 µM (inactive) | 18.7 µM (inactive) | – | 16.6 µM (inactive) | 26.6 µM (inactive) |
| CC(=O)C(O)N1C(=O)C=CC1=O (centres undefined) | 25.3 µM (inactive) | 16.9 µM (inactive) | 17.3 µM (inactive) | 5.89 µM (inactive) | 1.82 µM (inactive) | 1.88 µM (inactive) | 14.7 µM (inactive) | 5.86 µM (inactive) | 18.7 µM (inactive) |
| CCCCN(CCCC)/C(=N\C#N)NCc1ccccc1 | 46.6 µM (inactive) | 26.5 µM (inactive) | – | 19 µM (inactive) | 15.4 µM (inactive) | 23.8 µM (inactive) | 24.6 µM (inactive) | – | – |
| O=C(O)CCc1coc2ccc(O)cc12 | > 100 µM (inactive) | > 100 µM (inactive) | > 100 µM (inactive) | > 100 µM (inactive) | > 100 µM (inactive) | > 100 µM (inactive) | > 100 µM (inactive) | > 100 µM (inactive) | – |
| CC(=O)Nc1ccccc1-c1cnc2ccccc2n1 | > 100 µM (inactive) | > 100 µM (inactive) | 29.6 µM (inactive) | > 100 µM (inactive) | > 100 µM (inactive) | > 100 µM (inactive) | – | > 100 µM (inactive) | – |
| C=CCC(C)(C(=O)NCCC)C(=O)c1ccccc1O (centres undefined) | > 100 µM (inactive) | > 100 µM (inactive) | – | > 100 µM (inactive) | > 100 µM (inactive) | > 100 µM (inactive) | > 100 µM (inactive) | > 100 µM (inactive) | – |
| COc1ccc2c(c1)C1(C=N2)CCN(C(C)=O)CC1 | 41.5 µM (inactive) | > 100 µM (inactive) | – | > 100 µM (inactive) | > 100 µM (inactive) | > 100 µM (inactive) | > 100 µM (inactive) | 60.5 µM (inactive) | > 100 µM (inactive) |
| Cc1c(C(=O)CSc2nc3ccccc3[nH]2)c(=O)n(-c2ccccc2)n1C | – | > 100 µM (inactive) | > 100 µM (inactive) | > 100 µM (inactive) | > 100 µM (inactive) | > 100 µM (inactive) | > 100 µM (inactive) | – | – |

— ChEMBL document CHEMBL1201862, “PubChem BioAssay data set” (2004)
